Test results reported in patent publication US20230136600A1, “Method and device for screening antigen epitope polypeptide” (priority 2020, published 2023).

Legend:
[1] = test system: novel coronavirus (live coronavirus), vero cells; assay: In-vitro live virus neutralization experiment with serum of immunized mice (CPE method); type: in vivo, SARS-CoV-2
Balb/c mice = assay: Polypeptide chip-based vaccine immunogenicity scoring system; type: in vivo; set-up: key to A2: whether the 95 percentile of the last sampling is increased compared with the end point: Y = rise; N = no rise; conditions: for A: 95 percentile grouping number score / B: Mouse performance score: total score = 5
[2] = Embodiment III, polypeptide-KLH
[3] = Embodiment III, polypeptide-KLH, Mix1-10
[4] = Embodiment III, polypeptide-KLH, value of the whole mix
[5] = adjuvant AddaVax, 7 peptides co-immunized in mice
[6] = adjuvant Adju-Phos, 7 peptides co-immunized in mice
[7] = adjuvant Alhydrogel, 7 peptides co-immunized in mice
[8] = adjuvant Imjet Alumn, 7 peptides co-immunized in mice
[9] = adjuvant MA103A, 7 peptides co-immunized in mice
[10] = adjuvant MA103B, 7 peptides co-immunized in mice

SNLKPFER (SARS-CoV-2) [SEQ ID NO:36]
Neutralizing antibody positive rate (%) ([1]; Embodiment I: single peptide 100 μg + MF59 at Day 0, 14, 28, Balb/c mice, serum Day 35): 40%
Neutralizing activity of serum to the novel coronavirus (in words) ([1]; Embodiment I: single peptide vaccines + MF59): optimal neutralization effect
A2: whether the 95 percentile of the last sampling is increased compared with the end point (Balb/c mice; Embodiment II, Combination 2): Y
B1: D 0-D 14 95 percentile rise in the number of mice (Balb/c mice; Embodiment II, Combination 2): 5
B2: D 0-D 21 95 percentile rise in the number of mice (Balb/c mice; Embodiment II, Combination 2): 5
B3: D 14-D 21 95 percentile rise in the number of mice (Balb/c mice; Embodiment II, Combination 2): 0
B4: D 21-D 28 95 percentile rise in the number of mice (Balb/c mice; Embodiment II, Combination 2): 2
Total single peptide (Balb/c mice; Embodiment II, Combination 2, A*3 + B*2 + C*1): 11.8
A: 95 percentile grouping number score (Balb/c mice; Embodiment II, Combination 2): 1.5
B: Mouse performance score (Balb/c mice; Embodiment II, Combination 2): 3.4
A1: difference between a highest median and a D 0 median (95 percentile) (Balb/c mice; Embodiment II, mice immunized with Combination 2): 0.1
B1: D 0-D 14 95 percentile rise in the number of mice (Balb/c mice; [2]): 3
B2: D 0-D 21 95 percentile rise in the number of mice (Balb/c mice; [2]): 2
B3: D 14-D 21 95 percentile rise in the number of mice (Balb/c mice; [2]): 0
B4: D 21-D 28 95 percentile rise in the number of mice (Balb/c mice; [2]): 2
A1: difference between a highest median and a D 0 median (95 percentile) (Balb/c mice; [3]): 0.10
A2: whether the 95 percentile of the last sampling is increased compared with the end point (Balb/c mice; [3]): Y
Total single peptide (Balb/c mice; Embodiment III, polypeptide-KLH, A*3 + B*2 + C*1): 17.4
A: 95 percentile grouping number score (Balb/c mice; [2]): 4.5
B: Mouse performance score (Balb/c mice; [2]): 1.7
C1: #A timing-sequence response peptide fragment set (Balb/c mice; [4]): 511
C2: #B vaccine specificity peptide fragment set (Balb/c mice; [4]): 364
C3: Intersection of A and B (Balb/c mice; [4]): 1
C4: Percentage of the intersection in set B (Balb/c mice; [4]): 0.275
C: Timing-sequence response and specificity score (Balb/c mice; [4]): 0.5
1) 95 percentile grouping number A (Balb/c mice; [5]): 3.5
1) 95 percentile grouping number A1 (Balb/c mice; [5]): 0.04
2) Mouse performance B (Balb/c mice; [5]): 2.5
2) Mouse performance B1 (Balb/c mice; [5]): 3
2) Mouse performance B2 (Balb/c mice; [5]): 4
2) Mouse performance B3 (Balb/c mice; [5]): 2
3) Timing-sequence response and specificity C (Balb/c mice; [5]): 0
3) Timing-sequence response and specificity C1 (Balb/c mice; [5]): 237
3) Timing-sequence response and specificity C2 (Balb/c mice; [5]): 1244
3) Timing-sequence response and specificity C3 (Balb/c mice; [5]): 0
3) Timing-sequence response and specificity C4 (Balb/c mice; [5]): 0.000
Total single peptide (Balb/c mice; [5]): 15.5
1) 95 percentile grouping number A (Balb/c mice; [6]): 3.5
1) 95 percentile grouping number A1 (Balb/c mice; [6]): 0.05
2) Mouse performance B (Balb/c mice; [6]): 1.8
2) Mouse performance B1 (Balb/c mice; [6]): 2
2) Mouse performance B2 (Balb/c mice; [6]): 2
2) Mouse performance B3 (Balb/c mice; [6]): 2
3) Timing-sequence response and specificity C (Balb/c mice; [6]): 0
3) Timing-sequence response and specificity C1 (Balb/c mice; [6]): 203
3) Timing-sequence response and specificity C2 (Balb/c mice; [6]): 1244
3) Timing-sequence response and specificity C3 (Balb/c mice; [6]): 0
3) Timing-sequence response and specificity C4 (Balb/c mice; [6]): 0.000
Total single peptide (Balb/c mice; [6]): 14.1
1) 95 percentile grouping number A (Balb/c mice; [7]): 0
1) 95 percentile grouping number A1 (Balb/c mice; [7]): 0
2) Mouse performance B (Balb/c mice; [7]): 1.9
2) Mouse performance B1 (Balb/c mice; [7]): 3
2) Mouse performance B2 (Balb/c mice; [7]): 1
2) Mouse performance B3 (Balb/c mice; [7]): 2
3) Timing-sequence response and specificity C (Balb/c mice; [7]): 1
3) Timing-sequence response and specificity C1 (Balb/c mice; [7]): 123
3) Timing-sequence response and specificity C2 (Balb/c mice; [7]): 1244
3) Timing-sequence response and specificity C3 (Balb/c mice; [7]): 2
3) Timing-sequence response and specificity C4 (Balb/c mice; [7]): 0.161
Total single peptide (Balb/c mice; [7]): 4.3
1) 95 percentile grouping number A (Balb/c mice; [8]): 4.5
1) 95 percentile grouping number A1 (Balb/c mice; [8]): 0.065
2) Mouse performance B (Balb/c mice; [8]): 2.5
2) Mouse performance B1 (Balb/c mice; [8]): 5
2) Mouse performance B2 (Balb/c mice; [8]): 3
2) Mouse performance B3 (Balb/c mice; [8]): 1
3) Timing-sequence response and specificity C (Balb/c mice; [8]): 1
3) Timing-sequence response and specificity C1 (Balb/c mice; [8]): 100
3) Timing-sequence response and specificity C2 (Balb/c mice; [8]): 1244
3) Timing-sequence response and specificity C3 (Balb/c mice; [8]): 3
3) Timing-sequence response and specificity C4 (Balb/c mice; [8]): 0.241
Total single peptide (Balb/c mice; [8]): 19
1) 95 percentile grouping number A (Balb/c mice; [9]): 4.5
1) 95 percentile grouping number A1 (Balb/c mice; [9]): 0.065
2) Mouse performance B (Balb/c mice; [9]): 2.4
2) Mouse performance B1 (Balb/c mice; [9]): 4
2) Mouse performance B2 (Balb/c mice; [9]): 4
2) Mouse performance B3 (Balb/c mice; [9]): 1
3) Timing-sequence response and specificity C (Balb/c mice; [9]): 1
3) Timing-sequence response and specificity C1 (Balb/c mice; [9]): 260
3) Timing-sequence response and specificity C2 (Balb/c mice; [9]): 1244
3) Timing-sequence response and specificity C3 (Balb/c mice; [9]): 3
3) Timing-sequence response and specificity C4 (Balb/c mice; [9]): 0.241
Total single peptide (Balb/c mice; [9]): 18.8
1) 95 percentile grouping number A (Balb/c mice; [10]): 5
1) 95 percentile grouping number A1 (Balb/c mice; [10]): 0.06
2) Mouse performance B (Balb/c mice; [10]): 3.2
2) Mouse performance B1 (Balb/c mice; [10]): 4
2) Mouse performance B2 (Balb/c mice; [10]): 4
2) Mouse performance B3 (Balb/c mice; [10]): 3
3) Timing-sequence response and specificity C (Balb/c mice; [10]): 0
3) Timing-sequence response and specificity C1 (Balb/c mice; [10]): 153
3) Timing-sequence response and specificity C2 (Balb/c mice; [10]): 1244
3) Timing-sequence response and specificity C3 (Balb/c mice; [10]): 0
3) Timing-sequence response and specificity C4 (Balb/c mice; [10]): 0.000
Total single peptide (Balb/c mice; [10]): 21.4
